Measured values: patent US12459951B2, “Compounds that interact with RAS superfamily proteins for treatment of cancers, inflammatory diseases, rasopathies, and fibrotic disease” (SHY Therapeutics, LLC, priority 2022, dated 2025)

Experiments:
Erk1/2 phosphorylation = assay: Erk1/2 Phosphorylation Assay (western blot), Panc-1; assay type: cell-based, human; settings: at 10 μM, * = activation
How it was run: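 Phospho-Erk1/2 (Thr202/Tyr204) was detected by western blot in lysates of Panc-1 cells (KRas G12D). These had 6 h, 37° C exposure to 10 μM compound or a dilution series for IC50, in 0.3% DMSO. Cells were either starved overnight in 0.5% FBS with a 15-min 1.5 ng/ml EGF pulse, or kept unstimulated in 10% FBS.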

TNF-alpha = TNF-alpha Quantification Assay (ELISA), LPS-stimulated RAW 264.7; assay type: cell-based; settings: Mus musculus, RAW264.7; at 10 μM; read-out: TNFα: % inh.
MAPK p38 phosphorylation = assay: MAPK p38 Activation Assay (western blot), Panc-1; assay type: cell-based, human; settings: at 10 μM, Panc-1 pancreatic cancer cell line; starred symbols = activation
How it was run: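 Panc-1 cells (KRas G12D) were treated with compound for 6 h at 37 °C, at 10 μM or as serial dilutions for IC50, with 0.3% DMSO. Method 1 used overnight serum-starved cells (0.5% FBS) stimulated with 1.5 ng/ml EGF for 15 min; Method 2 used unstimulated cells in 10% FBS. Phospho-p38 (Thr180/Tyr182) was detected by western blot.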

SMILES	% inh of Erk1/2 phosphorylation in Panc-1 (Erk1/2 phosphorylation)	inhibition at 10 µM (TNF-alpha) [%]	% inh of MAPK p38 in Panc-1 (MAPK p38 phosphorylation)
COc1cccc(-c2cn3nc(-c4nccn4C)nc(O)c3c2C)c1Cl [Compound 15, 6-(2-Chloro-3-methoxyphenyl)-5-methyl-2-(1-methyl-1H-imidazol-2-yl)pyrrolo[2,1-f][1,2,4]triazin-4-ol]	0 (0% inhibition)	0	H* (H* ≥ 100% activation)
COc1ccnc(Oc2nc(-c3nccn3C)nn3cc(-c4ccn(C)n4)c(C)c23)c1 [Compound 220, 4-((4-Methoxypyridin-2-yl)oxy)-5-methyl-2-(1-methyl-1H-imidazol-2-yl)-6-(1-methyl-1H-pyrazol-3-yl)pyrrolo[2,1-f][1,2,4]triazine]	A (1-25% inhibition)	1 to 24	F (F = 31-74% inhibition)
COc1ccnc(Nc2nc(-c3nccn3CCN)nn3cc(-c4ccn(C)n4)c(C)c23)c1 [Compound 188, 2-(1-(2-Aminoethyl)-1H-imidazol-2-yl)-N-(4-methoxypyridin-2-yl)-5-methyl-6-(1-methyl-1H-pyrazol-3-yl)pyrrolo[2,1-f][1,2,4]triazin-4-amine]	A (1-25% inhibition)	0	E (E = 1-30% inhibition)
CO[C@H]1C[C@H](S(=O)(=O)Nc2nc(-c3nccn3C)nn3cc(-c4ccccc4)c(-c4ccccc4)c23)C1 [Compound 214, (1r,3r)-3-Methoxy-N-(2-(1-methyl-1H-imidazol-2-yl)-5,6-diphenylpyrrolo[2,1-f][1,2,4]triazin-4-yl)cyclobutane-1-sulfonamide]	A* (1-25% activation)	0	G (G = 75-99% inhibition)
CO[C@@H]1C[C@H]1Nc1nc(-c2nccn2C)nn2cc(-c3ccncc3)c(-c3ccccc3)c12 (racemic) [Compound 197, rac N-((1R,2R)-2-methoxycyclopropyl)-2-(1-methyl-1H-imidazol-2-yl)-5-phenyl-6-(pyridin-4-yl)pyrrolo[2,1-f][1,2,4]triazin-4-amine]	D* (85-100% activation)	25 to 49	F (F = 31-74% inhibition)
CO[C@H]1CC[C@@H](Nc2nc(-c3nccn3C)nn3cc(-c4cccnc4)c(-c4ccccc4)c23)C1 (racemic) [Compound 193, rac N-((1R,3S)-3-Methoxycyclopentyl)-2-(1-methyl-1H-imidazol-2-yl)-5-phenyl-6-(pyridin-3-yl)pyrrolo[2,1-f][1,2,4]triazin-4-amine]	D* (85-100% activation)	25 to 49	E (E = 1-30% inhibition)
COCCNc1nc(-c2nccn2C)nn2cc(-c3ccncc3)c(-c3ccccc3)c12 [Compound 202, N-(2-Methoxyethyl)-2-(1-methyl-1H-imidazol-2-yl)-5-phenyl-6-(pyridin-4-yl)pyrrolo[2,1-f][1,2,4]triazin-4-amine]	D* (85-100% activation)	1 to 24	E (E = 1-30% inhibition)
CO[C@@H]1C[C@H]1Nc1nc(-c2nccn2C)nn2cc(-c3cccnc3)c(-c3ccccc3)c12 (racemic) [Compound 190, N-((1R,2R)-2-Methoxycyclopropyl)-2-(1-methyl-1H-imidazol-2-yl)-5-phenyl-6-(pyridin-3-yl)pyrrolo[2,1-f][1,2,4]triazin-4-amine]	D* (85-100% activation)	1 to 24	E (E = 1-30% inhibition)
COCC1CCN(c2nc(-c3ccccn3)nn3cc(-c4ccn(C(C)C)n4)c(C)c23)C1 (racemic) [Compound 10, rac 6-(1-Isopropyl-1H-pyrazol-3-yl)-4-(3-(methoxymethyl)pyrrolidin-1-yl)-5-methyl-2-(pyridin-2-yl)pyrrolo[2,1-f][1,2,4]triazine]	0 (0% inhibition)	0	G* (G* = 75-99% activation)
CO[C@H]1C[C@H](Nc2nc(-c3nccn3C)nn3cc(-c4cccnc4)c(-c4ccccc4)c23)C1 [Compound 192, N-((1r,3r)-3-Methoxycyclobutyl)-2-(1-methyl-1H-imidazol-2-yl)-5-phenyl-6-(pyridin-3-yl)pyrrolo[2,1-f][1,2,4]triazin-4-amine]	D* (85-100% activation)	25 to 49	E* (E* = 1-30% activation)
COc1ccnc(Nc2nc(-c3nccn3C)nn3cc(-c4ccn(CCNC(=O)CCCC[C@H]5SC[C@H]6NC(=O)N[C@H]65)n4)c(C)c23)c1 [Compound 215, N-(2-(3-(4-((4-methoxypyridin-2-yl)amino)-5-methyl-2-(1-methyl-1H-imidazol-2-yl)pyrrolo[2,1-f][1,2,4]triazin-6-yl)-1H-pyrazol-1-yl)ethyl)-5-((3aR,4R,6aS)-2-oxohexahydro-1H-thieno[3,4-d]imidazol-4-yl)pentanamide]	A* (1-25% activation)	25 to 49	F (F = 31-74% inhibition)
COc1ccnc(Nc2nc(-c3nccn3C)nn3cc(-c4cccnc4)c(-c4ccccc4)c23)c1 [Compound 196, N-(4-Methoxypyridin-2-yl)-2-(1-methyl-1H-imidazol-2-yl)-5-phenyl-6-(pyridin-3-yl)pyrrolo[2,1-f][1,2,4]triazin-4-amine]	D* (85-100% activation)	75 to 100	F (F = 31-74% inhibition)
Cn1ccnc1-c1nc(NS(C)(=O)=O)c2c(-c3ccccc3)c(-c3ccccc3)cn2n1 [Compound 212, N-(2-(1-Methyl-1H-imidazol-2-yl)-5,6-diphenylpyrrolo[2,1-f][1,2,4]triazin-4-yl) methanesulfonamide]	B* (26-49% activation)	0	F (F = 31-74% inhibition)
CO[C@H]1C[C@H](Nc2nc(-c3nccn3C)nn3cc(-c4ccccc4)c(-c4ccccc4)c23)C1 [Compound 203, N-((1r,3r)-3-Methoxycyclobutyl)-2-(1-methyl-1H-imidazol-2-yl)-5,6-diphenylpyrrolo[2,1-f][1,2,4]triazin-4-amine]	D (85-100% inhibition)	75 to 100	G (G = 75-99% inhibition)
COCCNc1nc(-c2nccn2C)nn2cc(-c3cccc(OC)c3Cl)c(C)c12 [Compound 16, 6-(2-Chloro-3-methoxyphenyl)-N-(2-methoxyethyl)-5-methyl-2-(1-methyl-1H-imidazol-2-yl)pyrrolo[2,1-f][1,2,4]triazin-4-amine]	A (1-25% inhibition)	0	H* (H* ≥ 100% activation)
